The values that follow come from patent US7728039B2, “Biphenyl and Naphthyl-Phenyl Hydroxamic Acid Derivatives” (Sigma-Tau Industrie Farmaceutiche Riunite S.p.A., priority 2005, dated 2010).

Assay [1] has as its system NB4 human promyelocytic leukaemia. The assay is described as follows: Sulphorodamine B cytotoxicity test on NB4 cells. The class given is cell-based. From the text: (§1) The cytotoxic effect of some biphenyl and phenylnaphthyl compounds bearing a hydroxamic acid group is reported herein. […] The chemical structures of the tested compounds of the invention and of the corresponding compounds bearing a carboxylic acid group are reported in FIG. 1. To test the effects of the compounds on cell growth, NB4 human promyelocytic leukaemia, NCI-H460 non-small cell carcinoma cells, H460/(R9A) (resistant to carboxylic acid-bearing compounds: ST1898, ST1926, ST1964), HCT-116 human colon carcinoma cells, IGROV-1 and IGROV-1/Pt (sensitive ovarian carcinoma and platinum-resistant ovarian carcinoma cells, respectively) were used. NB4 and NCI-H460 tumour cells were grown in RPMI 1640 containing 10% foetal bovine serum (GIBCO), HCT-116 tumour cells were grown in McCoy's 5A containing 10% foetal bovine serum (GIBCO), IGROV-1 and IGROV-1/Pt were grown in DMEM containing 10% foetal bovine serum (GIBCO),
(§2) Tumour cells were seeded in 96-well tissue culture plates at approximately 10% confluence and were allowed to attach and recover for at least 24 h. Varying concentrations of the drugs were then added to each well to calculate their IC50 value (the concentration which inhibits the 50% of cell survival). The plates were incubated for 24 h at 37° C. At the end of the treatment, for NB4 tumour cells in suspension, the procedure was performed as follows: medium culture was removed by centrifugation of the plates at 1600×g for 10 min and the surnatant was removed. 250 μl PBS were added, then the plates were centrifuged at 1600×g for 10 min, the surnatant was removed. 200 μl/well of medium culture RPMI 1640 containing 10% FCS were added and the plates were incubated at 37° C. for other 48 h. The plates were centrifuged again at 1600×g for 10 min, the medium culture was removed and 200 μl PBS and 50 μl of cold 80% TCA were added. The plates were incubated on ice for at least 1 h. TCA was removed, the plates were washed 3 times for immersion in distilled-water and dried on paper and at 40° C. for 5 min. Then 200 μl of 0.4% sulphorodamine B in 1% acetic acid were added. The plates were incubated at room temperature for other 30 min. Sulphorodamine B was removed, the plates were washed for immersion in 1% acetic acid for 3 times, then they were dried on paper and at 40° C. for 5 min. Then 200 μl Tris 10 mM were added, the plates were kept under stirring for 20 min. The survival cell was determined as optical density by a Multiskan spectrofluorimeter at 540 nm. For the tumour cells in adhesion (NCI-H460 and HCT-116), the procedure was as above mentioned, except that at the end of the treatment, the plates were washed by remotion of the surnatant and addition of PBS 3 times without centrifugation. Also the last day of the assay, the surnatant was removed without centrifugation.
(§3) The amount of cells killed was calculated as the percentage decrease in sulphorodamine B binding compared with control cultures. The IC50 values (the concentration which inhibits the 50% of cell survival) were calculated with the “ALLFIT” program.

The subject of assay [2] is IGROV-1 (sensitive ovarian carcinoma cells). Briefly: Sulphorodamine B cytotoxicity test on IGROV-1 cells. The class given is cell-based. The note with it: read-out: IC50 ± SD, IGROV-1.
Source text: as §1, §2, §3

Assay [3] deals with IGROV-1/Pt (platinum-resistant ovarian carcinoma cells). The assay is described as follows: Sulphorodamine B cytotoxicity test on IGROV-1/Pt cells. The class given is cell-based. The following applies: read-out: IC50 ± SD, IGROV-1/Pt.
Source text: as §1, §2, §3

The subject of assay [4] is NCI-H460 non-small cell carcinoma cells. Briefly: Sulphorodamine B cytotoxicity test on NCI-H460 cells. The class given is cell-based. The following applies: SRB, read-out: IC50 ± SD, NCI-H460. The protocol: The chemical structures of the tested compounds of the invention and of the corresponding compounds bearing a carboxylic acid group are reported in FIG. 1. […] NB4 and NCI-H460 tumour cells were grown in RPMI 1640 containing 10% foetal bovine serum (GIBCO), HCT-116 tumour cells were grown in McCoy's 5A containing 10% foetal bovine serum (GIBCO), IGROV-1 and IGROV-1/Pt were grown in DMEM containing 10% foetal bovine serum (GIBCO),
as §2, §3

Assay [5] concerns HCT-116 human colon carcinoma cells. Briefly: Sulphorodamine B cytotoxicity test on HCT-116 cells. The note with it: Table 2, SRB, read-out: IC50 ± SD, HCT-116. The format is cell-based.
Source text: as §1, §2, §3

Assay [6] deals with NCI-H460 R9A tumour cells (H460/(R9A), resistant to carboxylic acid-bearing compounds). The assay is described as follows: Sulphorodamine B cytotoxicity test on ST1926-resistant NCI-H460 R9A cells. The following applies: for overcoming of resistance on H460/R9A: H460/R9A versus sensitive NCI-H460, result in words; for IC50: Table 3, resistant NCI-H460 R9A, SRB, read-out: IC50 ± SD, NCI-H460 R9A; for RI (resistance index): IC50 on resistant tumour cell line/IC50 on sensitive tumour cell line (NCI-H460 R9A / NCI-H460). The class given is cell-based.
Source text: as §1, §2, §3
The resistant tumour cell line NCI H460 R9A was a clone selected for the resistance to ST1926 (Table 3). To obtain the resistant tumour cell line, the sensitive NCI-H460 tumour cells were treated with 2 μM ST1926 for 24 hours and maintained in drug-free medium for a recovering time of 7 days. Then, survived cells were cultured applying a continuous selective pressure of 2 μM (10×IC50) ST1926. Resistant NCI-H460 cells were subculture for 3-4 times before increasing ST1926 concentration to 4 μM (20×IC50). Survived cells were seeded in 96-well plates to isolate resistant cells clones and maintained in complete medium with 4 μM of ST1926. The tumour cell line was maintained at least for one week, before seeding for SRB cytotoxicity assay, in drug-free medium.
To evaluate the effect of the compound on survival cells, the sulphorodamine B test was used. […]

The subject of assay [7] is NB4 promyelocytic leukaemia cells. Briefly: Differentiation of NB4 tumour cells by nitroblue tetrazolium (NBT) reduction, with or without ATRA. The format is cell-based, human. The note with it: 3 days, NBT-reducing activity; for AC50: combined with suboptimal ATRA (5 nM); for Differentiation AC50: compound alone (without ATRA). From the text:
Relevant aspects of the differentiation program set in motion by ATRA in APL cells can be reproduced in primary cultures of leukemic blasts and in the derived NB4 cell line, which is a unique model for the study of the pharmacologic activity of ATRA and derivatives. Pharmacological concentrations of ATRA arrest the growth of NB4 blasts and differentiate them into cells that resemble mature neutrophils. This is followed by a slow process of apoptosis. […] In particular, the differentiation of NB4 tumour cells induced by the compounds was determined by nitroblue tetrazolium (NBT) reduction. NB4 promyelocytic leukaemia cells were seeded at a density of 150000 cells/ml in RPMI 1640 medium containing 10% FCS. To measure the cytodifferentiating effect of the molecules, tumour cells were treated with the compounds at different concentrations starting from at least 0.4 μM to 0.01 μM, whereas to measure the enhancing action of the molecules of ATRA activity, NB4 cells were treated with increasing concentrations of the molecules in the presence or absence of ATRA at a suboptimal concentration (5 nM).
Tumour cells were incubated for 3 days at 37° C. without replacing the medium culture. To measure the prodifferentiative effect, 500,000 cells were collected, centrifuged and resuspended in 1 ml of RPMI 1640 medium containing 10% FCS, 1 mg/ml of nitroblue tetrazolium (NBT) and 100 ng of PMA (4-phorbol-12-myristate-13-acetate). The tumour cells resuspended were incubated at 37° C. for 60 min. At the end of the incubation, tumour cells were centrifuged and the pellet was resuspended in 1 ml of PBS containing Triton ×100 at 10%. The samples were sonicated and the absorbance was determined at 540 nm with a spectrophotometer. Differentiation of tumor cells as AC50 (activating concentration) was evaluated as the concentration of the compound giving 50% of the maximal induction of NBT-reducing activity with or without ATRA.

The mark [8] stands for this setting: Homo sapiens, NB-4, Table 4, NB4 tumour cells, compound alone, read-out: IC50 (μM ± SD).
Setting [9] is: Homo sapiens, NCI-H460, Table 2, NCI-H460.

Like-named read-outs stand apart in the source and are kept apart here.

`O=C(/C=C/c1ccc(-c2ccc(O)c(C34CC5CC(CC(C5)C3)C4)c2)cc1)NO` [ST2992, E-3-[3′-(1-adamantyl)-4′-hydroxy-biphenyl-4-yl]-N-hydroxy-acrylamide]: the IC50 in assay [1] (setting [8]) turned out to be 0.68 ± 0.07 µM; in assay [2] (Homo sapiens, Table 2, SRB), 0.77 ± 0.05 µM; in assay [3] (Homo sapiens, Table 2, SRB), 0.55 ± 0.05 µM; in assay [4] (setting [9]) it was 1.2 ± 0.03 µM; in assay [4] (Homo sapiens, NCI-H460, Table 3, sensitive NCI-H460) it was 1.2 ± 0.03 µM; in assay [5] (Homo sapiens), 3 ± 0.2 µM. For the same molecule, the IC50 in assay [6] (Homo sapiens) was found to be 1.2 ± 0.1 µM. Also, the “overcoming of resistance on H460/R9A” value in assay [6] is listed as “completely overcame the resistance”. In assay [6], the “RI (resistance index)” value is 1.0. Further, in assay [7] (Homo sapiens, 72 h), the AC50 came to 0.19 µM. The “Differentiation AC50” value in assay [7] is reported as “no differentiation”.
In the case of `O=C(/C=C/c1ccc(-c2ccc(O)cc2)cc1)NO` [ST2782, E-3-(4′-hydroxy-biphenyl-4-yl)-N-hydroxy-acrylamide], the IC50 in assay [1] (Homo sapiens, NB-4, Table 1, NB4, 24 h treatment, 48 h recovery, SRB, read-out: IC50 ± SD, NB4) is 2.3 ± 0.02 µM; in assay [1] (setting [8]), 2.3 ± 0.02 µM; in assay [2] (Homo sapiens, Table 1, SRB) it was 8.8 ± 3 µM; in assay [3] (Homo sapiens, Table 1, SRB), 7.7 ± 1.6 µM; in assay [4] (setting [9]), 6 ± 0.9 µM; in assay [5] (Homo sapiens), 6.7 ± 0.7 µM. In assay [6] (Homo sapiens), the IC50 was 1.8 ± 0.16 µM. Further, the “overcoming of resistance on H460/R9A” value in assay [6] is “the same characteristic are retained”. In assay [7] (Homo sapiens, 72 h), the AC50 stood at 2.47 µM. Besides, the “Differentiation AC50” value in assay [7] is “no differentiation”.
As for `O=C(NO)c1ccc2cc(-c3ccc(O)c(C45CC6CC(CC(C6)C4)C5)c3)ccc2c1` [ST2142, 6-[3-1-(adamantyl)-4-hydroxyphenyl]-naphthalene-2-carboxylic acid N-hydroxyamide], the IC50 was found to be 2.4 ± 0.08 µM in assay [1] (Table 4, NB4 tumour cells, compound alone, read-out: IC50 (μM ± SD)); 0.65 ± 0.1 µM in assay [2] (Table 2, SRB); 1.1 ± 0.03 µM in assay [3] (Table 2, SRB); 1 ± 0.06 µM in assay [4] (Table 2, NCI-H460); 1 ± 0.06 µM in assay [4] (Table 3, sensitive NCI-H460); 2.9 ± 0.2 µM in assay [5]. In assay [6], the IC50 came out at 2.2 ± 0.1 µM. The “overcoming of resistance on H460/R9A” value in assay [6] is listed as “completely overcame the resistance”. In addition, in assay [6], the “RI (resistance index)” value is listed as 2.2. Further, in assay [7], the AC50 stood at 0.31 µM. In addition, the “Differentiation AC50” value in assay [7] is “no differentiation”.
